Results published in ChEMBL document CHEMBL1201862, “PubChem BioAssay data set” (2004).
Activity calls are given as the source filed them. Cut-off read from the data, not from the text of the source, for most assays here: actives have a measured EC50 and inactives only a lower limit.

Assays:
[1] = cells; assay type: functional, cell-based
[2] = cells; assay type: functional, cell-based; remark: listed apart in the source
[3] = molecular target: Luciferin 4-monooxygenase (Photinus pyralis, UniProt P08659); assay: inhibition of purified Photinus pyralis luciferase – biochemical, luminescence, dose response (AID 1891)
[4] = Luminescence Cell-Based Dose Confirmation HTS to Identify Inhibitors of Platelet Dense Granule Release. [Related pubchem assays: 1663 (Primary HTS), 1678 (Summary of Project)]; assay type: functional
[5] = system: BJ; assay: BJ-TERT fibroblast viability loss – cell-based, RAS-independent, luminescence, dose response (AID 1933); assay type: functional; conditions: Homo sapiens
[6] = system: BJ; assay: cells; assay type: functional, cell-based; conditions: Homo sapiens
[7] = system: BJ; assay: BJ-TERT-LT-ST fibroblast viability loss – cell-based, RAS-independent, luminescence, dose response (AID 1935); assay type: functional; conditions: Homo sapiens;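 note: BJ fibroblasts immortalized with TERT plus LT and ST oncogenes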
[8] = DRD fibroblast viability loss – cell-based, non-viral oncogenic, luminescence, dose response (AID 1934); assay type: functional; conditions: Homo sapiens
[9] = system: Streptococcus sp. 'group A'; assay: Streptococcus pyogenes SK(-)GAS viability under kanamycin – luminescence, BacTiterGlo, confirmation, counter-screen for streptokinase expression inhibitor project, dose response (AID 1900); assay type: functional, organism-based
[10] = molecular target: T1, Streptokinase A (Streptococcus pyogenes serotype M1, UniProt P10520); assay: viability-normalized secreted streptokinase activity reduction – plasminogen activation absorbance, OD405, dose response (AID 1914); assay type: functional, Streptococcus pyogenes M1 GAS;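 note: secreted streptokinase activity via plasminogen activation per viability signal from cell pellet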
T1 sequence (P10520 whole entry): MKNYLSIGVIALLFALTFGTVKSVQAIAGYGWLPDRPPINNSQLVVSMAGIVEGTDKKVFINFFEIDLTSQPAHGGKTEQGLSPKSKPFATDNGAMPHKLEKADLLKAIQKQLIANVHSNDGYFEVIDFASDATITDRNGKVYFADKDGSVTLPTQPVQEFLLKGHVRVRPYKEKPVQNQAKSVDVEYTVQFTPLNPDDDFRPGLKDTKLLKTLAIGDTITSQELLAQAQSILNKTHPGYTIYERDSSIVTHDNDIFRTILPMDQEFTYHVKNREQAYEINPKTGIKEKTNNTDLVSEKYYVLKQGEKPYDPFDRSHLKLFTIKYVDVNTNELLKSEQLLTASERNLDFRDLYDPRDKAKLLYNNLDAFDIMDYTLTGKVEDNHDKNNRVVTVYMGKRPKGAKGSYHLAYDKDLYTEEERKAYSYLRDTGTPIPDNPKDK

[11] = system: Streptococcus; assay: GAS UMAA2166 growth inhibition – luminescence, BacTiterGlo, counter-screen for streptokinase expression inhibitor project, dose response (AID 1915); assay type: functional, organism-based;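 note: potency for reduction of bacterial viability or growth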
[12] = molecular target: T2, Corticotropin-releasing factor receptor 2/Corticotropin-releasing factor-binding protein (Homo sapiens, UniProt P24387+Q13324); assay: Dose Response confirmation of uHTS hits for small molecule antagonists of the CRF-binding protein and CRF-R2 receptor complex.; assay type: functional; conditions: read-out: IC50_Mean
T2 sequence (Q13324 whole entry): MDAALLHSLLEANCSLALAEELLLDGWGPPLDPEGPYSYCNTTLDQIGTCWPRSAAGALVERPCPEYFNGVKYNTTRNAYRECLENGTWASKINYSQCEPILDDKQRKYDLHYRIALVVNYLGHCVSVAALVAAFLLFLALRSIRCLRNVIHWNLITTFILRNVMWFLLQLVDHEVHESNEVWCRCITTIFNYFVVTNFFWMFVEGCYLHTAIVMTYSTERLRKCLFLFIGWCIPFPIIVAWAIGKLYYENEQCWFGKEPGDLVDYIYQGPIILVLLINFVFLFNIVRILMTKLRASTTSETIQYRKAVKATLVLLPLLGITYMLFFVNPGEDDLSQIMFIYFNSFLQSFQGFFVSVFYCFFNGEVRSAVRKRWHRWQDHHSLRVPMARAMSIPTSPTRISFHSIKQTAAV
T2 sequence (P24387 whole entry): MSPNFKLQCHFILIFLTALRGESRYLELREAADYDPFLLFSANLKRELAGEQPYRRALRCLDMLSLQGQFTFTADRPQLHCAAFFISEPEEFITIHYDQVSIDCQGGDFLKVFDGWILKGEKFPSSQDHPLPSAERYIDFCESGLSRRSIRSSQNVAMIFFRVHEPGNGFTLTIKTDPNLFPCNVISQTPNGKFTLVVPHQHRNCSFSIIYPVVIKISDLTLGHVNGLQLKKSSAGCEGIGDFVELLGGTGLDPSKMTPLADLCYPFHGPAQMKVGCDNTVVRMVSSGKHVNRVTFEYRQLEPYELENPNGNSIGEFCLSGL

[13] = molecular target: T2, Corticotropin-releasing factor receptor 2/Corticotropin-releasing factor-binding protein; assay: activators of CRF receptor 2 with binding protein – uHTS hits, confirmation (AID 602473); assay type: functional; conditions: read-out: EC50_Mean
[14] = luciferase reporter signal suppression in cells – H4 neuroglioma cells, luminescence, dose response (AID 1990); assay type: functional, cell-based
[15] = Luminescence Cell-Based Dose Response HTS to Identify Inhibitors of 5'UTR Stem-Loop Driven Prion Protein mRNA Translation in H4 Neuroglioblastoma Cells. [Related pubchem assays: 1827 (Project Summary), 1813 (Primary HTS)]; assay type: functional
[16] = alpha-synuclein stem-loop luciferase translation blockers – H4 neuroglioma cells, luminescence, confirmation (AID 1988); assay type: functional, cell-based
[17] = molecular target: Cytochrome P450 2C9 (Homo sapiens, UniProt P11712)
Chain of Cytochrome P450 2C9 (P11712 whole entry): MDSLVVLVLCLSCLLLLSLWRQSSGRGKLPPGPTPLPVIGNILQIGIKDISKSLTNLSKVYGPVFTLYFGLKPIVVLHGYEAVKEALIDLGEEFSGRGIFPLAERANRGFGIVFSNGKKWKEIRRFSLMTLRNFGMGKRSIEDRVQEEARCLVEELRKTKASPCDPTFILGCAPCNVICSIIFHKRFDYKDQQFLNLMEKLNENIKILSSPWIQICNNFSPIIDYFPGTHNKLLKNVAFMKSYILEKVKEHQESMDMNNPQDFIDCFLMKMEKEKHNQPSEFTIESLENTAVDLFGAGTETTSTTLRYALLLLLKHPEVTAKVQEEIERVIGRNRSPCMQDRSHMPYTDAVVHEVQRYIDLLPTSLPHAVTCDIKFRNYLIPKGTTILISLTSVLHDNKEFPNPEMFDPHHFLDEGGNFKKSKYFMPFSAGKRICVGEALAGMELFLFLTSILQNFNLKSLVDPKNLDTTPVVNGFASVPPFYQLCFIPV

Chain of Luciferin 4-monooxygenase (P08659 whole entry): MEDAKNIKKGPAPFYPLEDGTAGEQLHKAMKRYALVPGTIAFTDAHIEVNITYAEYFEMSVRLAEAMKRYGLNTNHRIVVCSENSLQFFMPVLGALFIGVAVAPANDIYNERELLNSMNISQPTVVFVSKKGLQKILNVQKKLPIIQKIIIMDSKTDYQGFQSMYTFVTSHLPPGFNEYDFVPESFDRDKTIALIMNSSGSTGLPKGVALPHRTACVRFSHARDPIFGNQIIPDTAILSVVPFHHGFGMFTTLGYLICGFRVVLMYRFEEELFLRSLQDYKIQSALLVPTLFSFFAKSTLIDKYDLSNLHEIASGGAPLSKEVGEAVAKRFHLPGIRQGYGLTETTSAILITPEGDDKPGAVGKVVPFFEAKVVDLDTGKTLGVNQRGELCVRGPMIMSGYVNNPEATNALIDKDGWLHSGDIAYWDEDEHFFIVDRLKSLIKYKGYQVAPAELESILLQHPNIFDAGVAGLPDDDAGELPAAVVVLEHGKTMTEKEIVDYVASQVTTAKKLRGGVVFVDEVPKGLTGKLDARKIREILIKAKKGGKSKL

O=C(Cn1c(SCC(=O)N2CCCc3ccccc32)nc2ccccc21)N1CCCC1
EC50 [1]: > 350 µM (not active)
EC50 [2]: > 350 µM (not active)

CCCc1nc2oc3c(=O)nc[nH]c3c2c2c1CCCC2
EC50 [3]: > 112 µM (not active)

CCCc1nc2oc3c(O)ncnc3c2c2c1CCCC2
EC50 [4]: > 112 µM (not active)

CCOc1ccc(NC(=O)CSc2nnc(Cn3cnc4ccccc43)n2C)cc1
EC50 [1]: > 350 µM (not active)
EC50 [2]: > 350 µM (not active)

CC(=O)n1c(Cl)c(NC(=O)CCl)c2ccccc21
EC50 [5]: 25.1 µM (active)
EC50 [6]: > 150 µM (not active)
EC50 [7]: > 150 µM (not active)
EC50 [8]: 29.7 µM (active)

CCCCCCC1CCC(c2nc(-c3ccncc3)no2)CC1 (configuration not stated)
EC50 [1]: > 350 µM (not active)
EC50 [2]: > 350 µM (not active)

Cc1ccccc1NS(=O)(=O)c1ccc(C)c(C(=O)N2CCOCC2)c1
EC50 [9]: > 150 µM (not active)
EC50 [10]: > 150 µM (not active)
EC50 [11]: > 150 µM (not active)
IC50 [12]: > 47.1 µM (inactive)
EC50 [13]: > 53 µM (inactive)

CC(NC(=O)CCc1nc2cc(S(=O)(=O)N3CCOCC3)ccc2n1C)c1ccc(S(N)(=O)=O)cc1 (configuration not stated)
EC50 [3]: > 112 µM (not active)
EC50 [4]: 41.7 µM (active)

Cc1nc2c(s1)sc1ccccc12
IC50 [12]: > 47.1 µM (inactive)
EC50 [13]: > 53 µM (inactive)

CCOC(=O)C1=C(CNCc2ccccc2Cl)NC(=O)NC1c1cccc([N+](=O)[O-])c1 (configuration not stated)
EC50 [3]: > 112 µM (not active)
EC50 [4]: > 112 µM (not active)

Cc1cc(C)n2nc(/C(C#N)=C/c3ccccc3)c(C#N)c2n1
IC50 [12]: > 47.1 µM (inactive)
EC50 [13]: > 53 µM (inactive)

Cc1nnc(N2CCC(C(=O)NC3CCC(C)CC3)CC2)c2nn(-c3ccc(Cl)cc3)c(C)c12 (configuration not stated)
EC50 [14]: 14.7 µM (active)
EC50 [15]: > 120 µM (not active)
EC50 [16]: > 120 µM (not active)

COC(=O)C(NC(=O)c1c(C)nn(C)c1Cl)c1ccccc1 (configuration not stated)
EC50 [1]: > 350 µM (not active)
EC50 [2]: > 350 µM (not active)

Cn1nnc(NC(=O)c2cccc([N+](=O)[O-])c2)n1
EC50 [1]: > 350 µM (not active)
EC50 [2]: > 350 µM (not active)

Cc1ccc(S(=O)(=O)Nc2cc(-c3nn(C)c(=O)c4ccccc34)ccc2N2CCOCC2)cc1
EC50 [14]: > 60 µM (not active)
EC50 [15]: > 120 µM (not active)
EC50 [16]: 10.8 µM (active)

CCCC1(C(=O)OC)NC(c2ccco2)C2C(=O)N(C)C(=O)C21 (configuration not stated)
EC50 [14]: > 120 µM (not active)
EC50 [15]: > 120 µM (not active)
EC50 [16]: > 120 µM (not active)

CCOC(=O)C(CC)(CC)C(=O)/C=C/c1cccc(Br)c1
EC50 [5]: 10 µM (active)
EC50 [6]: 16.6 µM (active)
EC50 [7]: 10.7 µM (inconclusive)
EC50 [8]: 9.57 µM (active)

CCOC(=O)c1c(C)[nH]c(C)c1S(=O)(=O)N1CCN(c2ccc([N+](=O)[O-])cc2)CC1
EC50 [14]: 23 µM (active)
EC50 [15]: > 120 µM (not active)
EC50 [16]: > 120 µM (not active)

Cc1ccc(N(C(=O)Cn2nnc(-c3ccccc3)n2)C(C(=O)NC2CCCCC2)c2ccccn2)cc1C (configuration not stated)
IC50 [12]: > 47.1 µM (inactive)
EC50 [13]: > 53 µM (inactive)

CCOc1ccc(N(CC(=O)NC2CCC(C)CC2)S(=O)(=O)c2c(C)noc2C)cc1 (configuration not stated)
IC50 [12]: > 47.1 µM (inactive)
EC50 [13]: > 53 µM (inactive)

CC(C)COc1ccc(C(=O)Nc2ccc([N+](=O)[O-])cc2)cc1
EC50 [1]: > 350 µM (not active)
EC50 [2]: > 350 µM (not active)

O=[N+]([O-])c1ccc(N2CCN(S(=O)(=O)c3ccccc3)CC2)cc1NCC1CCCO1 (configuration not stated)
EC50 [14]: 18.3 µM (active)
EC50 [15]: 40.6 µM (active)
EC50 [16]: 19.2 µM (active)

CCc1nc2scc(-c3cccs3)c2c(=O)o1
EC50 [3]: > 112 µM (not active)
EC50 [4]: > 112 µM (not active)

COc1ccc(N2CCN(C(=O)c3csc4ccccc34)CC2)cc1
IC50 [12]: > 47.1 µM (inactive)
EC50 [13]: > 53 µM (inactive)

C=CCNC(=S)N/N=C/c1ccc(OCc2ccccc2)cc1
IC50 [12]: > 47.1 µM (inactive)
EC50 [13]: > 53 µM (inactive)
AC50 [17]: 15.8 µM (inconclusive)

C/C(=N\NC(=O)c1ccc2c(c1)OCCO2)c1ccccc1
EC50 [3]: 12.8 µM (active)
EC50 [4]: 2.98 µM (active)

Cc1ccc2c(c1)Oc1ccccc1N=C2
IC50 [12]: > 47.1 µM (inactive)
EC50 [13]: > 53 µM (inactive)

CCOc1ccc(/C=N/NC(=O)CN2CCCCCCC2)cc1
IC50 [12]: > 47.1 µM (inactive)
EC50 [13]: > 53 µM (inactive)
